In US9802891B2, “Crystal forms of azetidinone compounds and preparing methods thereof” (Zhejiang Hisun Pharmaceutical Co., Ltd., priority 2012, dated 2017):

Legend:
[1] = Accelerated stability test; format: physicochemical; settings: 40° C.±2° C., relative humidity 75%±5%; for Melting point / Content of C25H21F2NO3, based on anhydride / Relevant substances: Single maximum unknown foreign matter / Relevant substances: Total foreign matter / Moisture / Relevant substances: Diastereomer: commercial package; for Melting point: limit 149-153° C.; for Content of C25H21F2NO3, based on anhydride: shall be no less than 97.0%; for Relevant substances: Single maximum unknown foreign matter: shall not exceed 0.3%; for Relevant substances: Total foreign matter: shall not exceed 1.5%; for Moisture: shall not exceed 2.0%; for Relevant substances: Diastereomer: shall not exceed 1.0%
Method: In accordance with the stability test guiding principles (Chinese Pharmacopoeia 2010 Edition 2—Annex XIX C), prepare the sample of the crystal form I of the compound of formula A described in embodiment 6 in a commercial package, place the samples in a thermotank at the temperature of 40° C.±2° C. with the relative humidity of 75%±5%, with the duration of 6 months, take each sample once at the ends of the first month, the second month, the third month and the sixth month respectively to detect the key stability inspection items and compare with the results of the sample at the zero day, wherein see Table 4 for the comparisons.

Long term stability test = format: physicochemical; settings: 25° C.±2° C., relative humidity 60%±10%; for Content of C25H21F2NO3, based on anhydride: shall be no less than 97.0%; for Relevant substances: Single maximum unknown foreign matter: shall not exceed 0.3%; for Relevant substances: Total foreign matter: shall not exceed 1.5%; for Moisture: shall not exceed 2.0%
Method: In accordance with the stability test guiding principles (Chinese Pharmacopoeia 2010 Edition 2—Annex XIX C), prepare the samples of the crystal form I of the compound of formula A described in embodiment 6 in a commercial package, place the samples in a thermotank at the temperature of 25° C.±2° C. with the relative humidity of 60%±10%, take each sample from the samples once at the ends of the third month, the sixth month and the ninth month respectively to detect the key stability inspection items of each sample and compare with the result of the sample at the zero day, wherein see Table 3 for the comparisons.

[2] = commercial package, month 9, shall not exceed 0.5%

Melting point ([1]; month 0): 149.8-152.1 °C | Content of C25H21F2NO3, based on anhydride ([1]; month 0): 98.71% | Relevant substances: Single maximum unknown foreign matter ([1]; month 0): 0.097% | Relevant substances: Total foreign matter ([1]; month 0): 0.342% | Moisture ([1]; month 0): 0.20% | Melting point ([1]; month 1): 149.3-151.5 °C | Content of C25H21F2NO3, based on anhydride ([1]; month 1): 99.11% | Relevant substances: Single maximum unknown foreign matter ([1]; month 1): 0.1004% | Relevant substances: Diastereomer ([1]; month 1): 0.0128% | Relevant substances: Total foreign matter ([1]; month 1): 0.3757% | Moisture ([1]; month 1): 0.30% | Melting point ([1]; month 2): 149.7-152.1 °C | Content of C25H21F2NO3, based on anhydride ([1]; month 2): 98.82% | Relevant substances: Single maximum unknown foreign matter ([1]; month 2): 0.0856% | Relevant substances: Diastereomer ([1]; month 2): Not detected | Relevant substances: Total foreign matter ([1]; month 2): 0.3650% | Moisture ([1]; month 2): 0.28% | Melting point ([1]; month 3): 149.7-152.1 °C | Content of C25H21F2NO3, based on anhydride ([1]; month 3): 98.78% | Relevant substances: Single maximum unknown foreign matter ([1]; month 3): 0.0983% | Relevant substances: Diastereomer ([1]; month 3): Not detected | Relevant substances: Total foreign matter ([1]; month 3): 0.3717% | Moisture ([1]; month 3): 0.37% | Melting point ([1]; month 6): 149.5-151.9 °C | Content of C25H21F2NO3, based on anhydride ([1]; month 6): 97.97% | Relevant substances: Single maximum unknown foreign matter ([1]; month 6): 0.2017% | Relevant substances: Diastereomer ([1]; month 6): Not detected | Relevant substances: Total foreign matter ([1]; month 6): 1.0828% | Moisture ([1]; month 6): 0.44% | Content of C25H21F2NO3, based on anhydride (Long term stability test; commercial package, month 0): 98.74% | Relevant substances: Single maximum unknown foreign matter (Long term stability test; commercial package, month 0): 0.097% | Relevant substances: Total foreign matter (Long term stability test; commercial package, month 0): 0.342% | Moisture (Long term stability test; commercial package, month 0): 0.23% | Content of C25H21F2NO3, based on anhydride (Long term stability test; commercial package, month 3): 98.99% | Relevant substances: Single maximum unknown foreign matter (Long term stability test; commercial package, month 3): 0.1013% | Relevant substances: Total foreign matter (Long term stability test; commercial package, month 3): 0.3488% | Moisture (Long term stability test; commercial package, month 3): 0.41% | Content of C25H21F2NO3, based on anhydride (Long term stability test; commercial package, month 6): 98.83% | Relevant substances: Single maximum unknown foreign matter (Long term stability test; commercial package, month 6): 0.0956% | Relevant substances: Total foreign matter (Long term stability test; commercial package, month 6): 0.3551% | Moisture (Long term stability test; commercial package, month 6): 0.56% | Content of C25H21F2NO3, based on anhydride (Long term stability test; commercial package, month 9): 98.91% | Relevant substances: Single maximum unknown foreign matter (Long term stability test; commercial package, month 9): 0.0940% | Isomer: E-isomer (Long term stability test; [2]): 0.0161% | Isomer: Enantiomer (Long term stability test; [2]): 0.0587% | Relevant substances: Total foreign matter (Long term stability test; commercial package, month 9): 0.3581% | Moisture (Long term stability test; commercial package, month 9): 0.32%
SMILES: O=C1[C@H](C/C=C(\CO)c2ccc(F)cc2)[C@@H](c2ccc(O)cc2)N1c1ccc(F)cc1 [crystal form I, (3R,4S)-4-(4-hydroxyphenyl)-3-[3-(4-fluorophenyl)-4-hydroxybut-2(Z)-enyl]-1-(4-fluorophenyl)-2-azetidinone]
Accelerated stability, conclusion on inspection indexes ([1]; 6 months): the relevant substances are grown significantly in the sixth month and the content is reduced at a certain level; however, both of the two are within the acceptable range | Long term stability, conclusion on inspection indexes (Long term stability test; nine month): various inspection indexes of the samples do not change apparently and all meet the specifications
